According to ChEMBL document CHEMBL4354872, “Use of Non-Natural Amino Acids for the Design and Synthesis of a Selective, Cell-Permeable MALT1 Activity-Based Probe” (J Med Chem, 2020):
Active and inactive are the calls of the source. The rule behind the calls is not given here.

Columns and labels:
[1] = target: T1, Mucosa-associated lymphoid tissue lymphoma translocation protein 1 (Homo sapiens) (UniProt Q9UDY8); assay: Inhibition of full length wild type human N-terminal GST-tagged MALT1 catalytic domain (325 to 760 residues) expressed in Escherichia coli BL21 (DE3) assessed as increase in fluorescence at 0.5 uL using Ac-LRSR-AMC as substrate preincubated for 20 mins followed by substrate addition measured after 60 to 120 mins by fluorescence plate reader assay
T1 sequence (whole entry): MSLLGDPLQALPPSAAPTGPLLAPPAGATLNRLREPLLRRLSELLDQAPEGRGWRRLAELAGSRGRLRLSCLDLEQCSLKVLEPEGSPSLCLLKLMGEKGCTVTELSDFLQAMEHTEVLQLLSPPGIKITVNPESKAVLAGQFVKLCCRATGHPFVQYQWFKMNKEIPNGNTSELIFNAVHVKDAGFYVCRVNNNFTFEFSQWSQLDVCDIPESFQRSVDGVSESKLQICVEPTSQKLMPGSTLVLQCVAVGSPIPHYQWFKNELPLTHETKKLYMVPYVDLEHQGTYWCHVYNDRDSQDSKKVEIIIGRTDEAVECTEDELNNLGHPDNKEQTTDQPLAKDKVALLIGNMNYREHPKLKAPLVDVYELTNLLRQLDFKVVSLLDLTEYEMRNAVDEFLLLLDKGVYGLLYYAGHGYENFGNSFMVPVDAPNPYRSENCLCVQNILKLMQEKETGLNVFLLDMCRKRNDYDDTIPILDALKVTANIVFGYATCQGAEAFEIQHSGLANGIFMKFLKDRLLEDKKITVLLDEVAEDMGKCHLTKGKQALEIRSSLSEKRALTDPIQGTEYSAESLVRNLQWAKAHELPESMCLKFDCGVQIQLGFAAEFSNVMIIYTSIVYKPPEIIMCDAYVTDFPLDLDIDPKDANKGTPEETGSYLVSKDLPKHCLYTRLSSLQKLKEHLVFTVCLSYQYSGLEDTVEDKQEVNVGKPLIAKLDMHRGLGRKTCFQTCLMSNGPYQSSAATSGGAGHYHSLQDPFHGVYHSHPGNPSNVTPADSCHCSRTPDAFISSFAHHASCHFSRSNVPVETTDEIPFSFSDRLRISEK

[2] = target: T2, Cathepsin B (Homo sapiens, UniProt P07858); assay: Inhibition of recombinant human cathepsin B expressed in Escherichia coli BL21 (DE3) assessed as increase in fluorescence at 0.5 uL using zRR-AMC as substrate measured after 60 to 80 mins by fluorescence plate reader assay
[3] = target: T2, Cathepsin B; assay: Inhibition of recombinant human cathepsin B expressed in Escherichia coli BL21 (DE3) assessed as increase in fluorescence at 0.5 uL using zRR-AMC as substrate measured after 60 to 80 mins by fluorescence plate reader assay relative to Z-VRPR-FMK
[4] = target: T3, Mucosa-associated lymphoid tissue lymphoma translocation protein 1 (Homo sapiens, UniProt Q9UDY8); assay: Inhibition of […] wild type human N-terminal GST-tagged MALT1 catalytic domain (325 to 760 residues) expressed in Escherichia coli BL21 (DE3) using Ac-LVPipR-ACC as substrate measured after 2 hrs by microplate reader assay
T3 sequence (Q9UDY8 whole entry): T1 sequence (whole entry)

[5] = target: T1, Mucosa-associated lymphoid tissue lymphoma translocation protein 1 (Homo sapiens); assay: Inhibition of […] wild type human N-terminal GST-tagged MALT1 catalytic domain (325 to 760 residues) expressed in Escherichia coli BL21 (DE3) assessed as inactivation rate constant using Ac-LVPipR-ACC as substrate measured after 2 hrs by microplate reader assay
[6] = target: T2, Cathepsin B; assay: Inhibition of recombinant human cathepsin B expressed in Escherichia coli BL21 (DE3) using zRR-AMC as substrate measured after 2 hrs by fluorescence plate reader assay
[7] = target: T1, Mucosa-associated lymphoid tissue lymphoma translocation protein 1 (Homo sapiens); assay: Covalent binding affinity to Streptag2-tagged MALT1 stably reconstituted in human knockout Jurkat cells assessed as PMA/ionomycin stimulated ABP labeling of MALT1 by measuring cleavage of CYLD substrate using CYLD as substrate at 3 uM pretreated for PMA/ionomycin with 30 mins followed by compound treatment and further incubated for 3 hrs by Western blot analysis; type: cell-based
[8] = species on record: Homo sapiens; assay: Covalent binding affinity to MALT1 C453/A mutant (unknown origin) assessed as PMA/ionomycin stimulated ABP labeling of MALT1 by measuring cleavage of CYLD substrate using CYLD as substrate at 3 uM pretreated with PMA/ionomycin for 30 mins followed by compound treatment and further incubated for 3 hrs by Western blot analysis
[9] = target: T1, Mucosa-associated lymphoid tissue lymphoma translocation protein 1 (Homo sapiens); assay: Covalent binding affinity to MALT1 in wild type human Jurkat cell lysate assessed as PMA/ionomycin stimulated ABP labeling by protein-compound adduct formation at 3 uM pretreated with PMA/ionomycin for 30 mins followed by compound treatment after 3 hrs by laser imaging analysis; type: subcellular
[10] = target: T2, Cathepsin B; assay: Covalent binding affinity to cathepsin B in wild type human Jurkat cell lysate assessed as ABP labeling by protein-compound adduct formation at 3 uM after 3 hrs by laser imaging analysis; type: subcellular
[11] = target: T1, Mucosa-associated lymphoid tissue lymphoma translocation protein 1 (Homo sapiens); assay: Inhibition of MALT1 in human HBL1 assessed as assessed as reduction in Relb substrate cleavage after 5 hrs in presence of proteasome inhibitor by Western blot analysis
[12] = target: T1, Mucosa-associated lymphoid tissue lymphoma translocation protein 1 (Homo sapiens); assay: Binding affinity to MALT1 in human Jurkat cells assessed as ABP labeling of protein at 3 uM pretreated with compound for 3 hrs followed by PMA/ionomycin stimulation for 30 mins by laser imaging analysis; type: cell-based
[13] = target: T2, Cathepsin B; assay: Binding affinity to cathepsin B in human Jurkat cells assessed as ABP labeling of protein at 3 uM pretreated with compound for 3 hrs followed by PMA/ionomycin stimulation for 30 mins by laser imaging analysis; type: cell-based
[14] = target: T2, Cathepsin B; assay: Inhibition of recombinant human cathepsin B expressed in Escherichia coli BL21 (DE3) assessed as inactivation rate constant using zRR-AMC as substrate measured after 2 hrs by fluorescence plate reader assay
[15] = target: T1, Mucosa-associated lymphoid tissue lymphoma translocation protein 1 (Homo sapiens); assay: Inhibition of MALT1 in human HBL1 assessed as assessed as reduction in Relb substrate cleavage at 3 to 30 uM after 5 hrs in presence of proteasome inhibitor by Western blot analysis
[16] = target: T1, Mucosa-associated lymphoid tissue lymphoma translocation protein 1 (Homo sapiens); assay: (§1) Competitive binding affinity to MALT1 in wild type human Jurkat cell lysate assessed as PMA/ionomycin stimulated ABP labeling by protein-compound adduct formation at 3 uM pretreated with 25 uM of MALT1 inhibitor s-mepazine for 2 hrs followed by PMA/ionomycin stimulation for 30 mins and subsequent compound addition measured after 3 hrs by Western blot analysis; type: subcellular
[17] = target: T1, Mucosa-associated lymphoid tissue lymphoma translocation protein 1 (Homo sapiens); assay: as §1, with “z-VRPR-FMK” for “s-mepazine”; type: subcellular
[18] = target: T2, Cathepsin B; assay: as §1, with “to cathepsin B” for “to MALT1”, “inhibitor z-VRPR-FMK” for “inhibitor s-mepazine”; type: subcellular
[19] = target: T2, Cathepsin B; assay: as §1, with “to cathepsin B” for “to MALT1”, “with 5” for “with 25”, “inhibitor CA-074ME” for “inhibitor s-mepazine”; type: subcellular

inhibition [1]	inhibition [2]	fold change (FC) [3]	Ki [4]	Kinact [5]	Ki [6]	Activity [7]	Activity [8]	Activity [9]	Activity [10]	inhibition [11]	Activity [12]	Activity [13]	Kinact [14]	inhibition [15]	Activity [16]	Activity [17]	Activity [18]	Activity [19]	Compound
Active	Active	50	170 nM	1.7 ×10⁻³ /s	> 10000 nM	Active	inactive	Active	inactive	Dose-dependent effect	inactive	inactive	–	–	–	–	–	–	CC1=CC(C)=[N+]2C1=C(CCCc1cn(CCCCCC(=O)N[C@@H](CC(C)C)C(=O)N[C@H](C(=O)N3CCCC[C@H]3C(=O)N[C@@H](CCCNC(=N)N)C(=O)COC(=O)c3c(C)cccc3C)C(C)C)nn1)c1c(C)cc(C)n1[B-]2(F)F
Active	Active	–	340 nM	2 ×10⁻³ /s	630 nM	Active	inactive	Active	Active	–	Active	Active	9.6 ×10⁻³ /s	inactive	–	–	–	–	CC1=CC(C)=[N+]2C1=Cc1ccc(CCC(=O)N[C@@H](CC(C)C)C(=O)N[C@@H](CCCNC(=N)N)C(=O)N[C@@H](CO)C(=O)N[C@@H](CCCNC(=N)N)C(=O)COC(=O)c3c(C)cccc3C)n1[B-]2(F)F
Active	Active	–	–	–	–	–	–	–	–	–	–	–	–	–	–	–	–	–	CC(C)[C@H](NC(=O)OCc1ccccc1)C(=O)N[C@@H](CCCNC(=N)N)C(=O)N1CCC[C@H]1C(=O)N[C@@H](CCCNC(=N)N)C(=O)CF
Active	Active	–	210 nM	1.1 ×10⁻³ /s	210 nM	Active	inactive	Active	Active	Dose-dependent effect	Active	Active	4.1 ×10⁻³ /s	–	inactive	inactive	inactive	inactive	CC1=CC(C)=[N+]2C1=C(CCCc1cn(CCCCCC(=O)N[C@@H](CC(C)C)C(=O)N[C@H](C(=O)N[C@@H](CO)C(=O)N[C@@H](CCCNC(=N)N)C(=O)COC(=O)c3c(C)cccc3C)C(C)C)nn1)c1c(C)cc(C)n1[B-]2(F)F
